# Test results from publication PMC3854790, “CRIS—A Novel cAMP-Binding Protein Controlling Spermiogenesis and the Development of Flagellar Bending” (PLoS Genetics, 2013).
# Target: T1, mCRIS CNBD (cit-mCNBD-cer FRET sensor) (Mus musculus, UniProt Q9D5U8)
# T1 construct: gene Cnbd2; CNBD, aa 202-353 of mCRIS cDNA from mouse testis; citrine at N terminus, cerulean-His10 at C terminus (also printed cer-mCNBD-cit); expressed in CHO cells
# Assay: intramolecular FRET (cerulean/citrine ratio), live-cell imaging
# Format: cell-based
# Conditions: 3 mM 8-Br-cAMP perfused on CHO cells, 10 min
# T1 sequence (Q9D5U8 202-353): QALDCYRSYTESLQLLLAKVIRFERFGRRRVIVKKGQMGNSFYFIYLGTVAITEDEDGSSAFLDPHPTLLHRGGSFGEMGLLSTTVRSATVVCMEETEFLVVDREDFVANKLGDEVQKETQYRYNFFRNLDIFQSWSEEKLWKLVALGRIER
compound,measurement,value
Nc1ncnc2c1nc(Br)n2[C@@H]1O[C@@H]2COP(=O)(O)O[C@H]2[C@H]1O [8-Br-cAMP],change in FRET (normalized emission ratio),"Addition of 8-Br-cAMP, a membrane-permeable cAMP analogue, or NKH477, an activator of adenylyl cyclases, changed"
